Molecules are shown by their SMILES.

One data set is described as follows: method code SF, from Hansch, C. & Leo, A. (1987). Log P database [Dataset]. Pomona College Medicinal Chemistry Project.
Details: not given
By logP is commonly meant a log measure of how a compound divides between an organic and an aqueous phase. The low end stands for a more hydrophilic compound, the high end for a more lipophilic compound. On to `CCCCCCC1OC(=O)c2cc(N)ccc21` (stereo not drawn), for which the logP is 3.65.
Still for that read-out and setting: for `CC(=O)Oc1ccccc1C(C)C` the value was 2.78; for `CCCCC1OC(=O)c2cc(Cl)ccc21` (stereo not drawn), 3.53.
On the same count and under the same terms, to `CCOP(=O)(OCC)Oc1ccc(SC)c(C)c1` belongs 3.28.
On the same count and under the same terms, for `c1ccc(-c2ccc(C(c3ccccc3)n3ccnc3)cc2)cc1` (stereo not drawn) the value was 4.77.
As to `CS(=O)(=O)NN=Cc1ccccc1`, the logP stood at 1.2.
Same read-out and setting: to `CC(=O)Nc1cccc(OC(=O)CNC(=O)c2ccccc2)c1` belongs 1.7.
As to `CN(C)C(=O)Oc1ccccc1`, the logP was found to be 1.56.
Still for that read-out and setting: to `CO[C@H]1C=CO[C@@]2(C)Oc3c(C)c(O)c4c(O)c(c(CN5CCN(C)CC5)c(O)c4c3C2=O)NC(=O)/C(C)=C\C=C/[C@@H](C)[C@@H](O)[C@@H](C)[C@H](O)[C@H](C)[C@@H](OC(C)=O)[C@H]1C` belongs 1.76; to `CCC(=Cc1ccccc1)[N+](=O)[O-]`, 2.86.
On to `CCC(=O)CCCN(C)c1ccc(S(=O)(=O)N(C)C)cc1`, for which the logP amounted to 0.71.
On the same count and under the same terms, to `Nc1ncccn1` belongs -0.22; to `c1ccc2c(c1)CNc1ccccc1C2`, 2.9; to `O=C1OC(Cc2ccccc2)c2ccccc21` (stereo not drawn), 3.12.
Same read-out and setting: to `CCOP(=S)(OCC)SCS(=O)C(C)(C)C` (stereo not drawn) belongs 2.21; to `O=C(CNC(=O)c1ccccc1)Oc1cccc(Cl)c1`, 3.21.
On the same count and under the same terms, to `Nc1ccc(C2CCCCC2)cc1` belongs 3.65.
Molecule `CCOP(=O)(N1CC1(C)C)N1CC1(C)C` (stereo not drawn) yielded a lipophilicity (logP) of 1.02.
As to `CCOC(=O)C(=Cc1ccc(O)c(OC)c1)C(=O)OCC`, the logP was 2.89.
Still for that read-out and setting: for `O=c1nc[nH]c(=O)[nH]1` the value was -1.87; for `CCOC(=O)C(=Cc1cccc(OCC)c1)C(=O)OCC`, 3.39; for `Nc1ncc2ncn(COCCO)c2n1`, -0.96.
Still for that read-out and setting: for `CCCCC(=O)Nc1ccccc1` the value was 2.61.
Still for that read-out and setting: to `CCOC(=O)C(F)(F)C(F)(F)F` belongs 2.12; to `CC1(O)OC(=O)c2ccccc21` (stereo not drawn), 0.81.
The molecule `CCOc1ccccc1NC(C)=O` came in with a logP of 1.49.
The same measure, in the same setting: to `CC(=O)Nc1ccccc1NC(C)=O` belongs -0.03.
The same measure, in the same setting: to `CNP(=O)(OC)Oc1ccc(C(C)(C)C)cc1Cl` (stereo not drawn) belongs 3.42.
The same measure, in the same setting: for `O=C1CC(=O)c2ccccc21` the value was 0.61; for `OCCOc1c(Br)cc(Br)cc1Br`, 3.42.
Consider `O=[N+]([O-])c1ccc2[nH]c(CCCCCCc3nc4cc([N+](=O)[O-])ccc4[nH]3)nc2c1`, for which the logP worked out at 1.51.
On the same count and under the same terms, to `FC(F)Oc1ccccc1` belongs 2.41; to `O=c1[nH]cc(I)c(=O)[nH]1`, 0.04; to `Cc1cccc(C(N)=O)c1`, 1.18.
Same read-out and setting: to `O=CN(Cc1ccccc1)c1ccccc1` belongs 2.62.
Same read-out and setting: to `CN(C)/N=N/c1ccccc1C(=O)NNC(=O)CC#N` belongs 1.44; to `CCc1ccsc1`, 2.82; to `CCOC(=O)[C@H](O)[C@@H](O)C(=O)OCC`, -0.29.
Take `OC(c1ccccc1)(C(F)(F)F)C(F)(F)F`: the logP was found to be 3.41.
The same measure, in the same setting: for `CNc1nc2ccccc2o1` the value was 1.82; for `CC1=Nc2cc([N+](=O)[O-])c(Cl)cc2S(=O)(=O)N1`, 1.42.
Still for that read-out and setting: for `c1ccc2c(c1)OCO2` the value was 2.08.
On the same count and under the same terms, for `FS(F)(F)(F)(F)c1ccccc1` the value was 3.36; for `CCC(C)c1ccccc1OCC(=O)O` (stereo not drawn), 3.32; for `NC(=O)CI`, -0.19.
The molecule `CCOC(=O)C(=Cc1ccccc1OC)C(=O)OCC` gave a logP of 3.29.
On the same count and under the same terms, for `CN(Cc1ccccc1)/N=N/c1ccc(C#N)cc1` the value was 3.82; for `CCNC(=O)Nc1ccccc1`, 1.64.
Same read-out and setting: for `O=[N+]([O-])c1ccc(OCCn2ccnc2)cc1` the value was 1.69; for `CC(=O)Sc1ccccc1`, 2.23; for `CN(C)Cc1ccco1`, 1.19.
The molecule `CNC(=O)Oc1cccc(Cl)c1Cl` returned a logP of 2.48.
`CC(C)c1ccccc1OC(=O)N(C)C` gave a logP of 2.65. The logP values of the last two molecules are within 0.2 log units of each other.
The same measure, in the same setting: to `CNC(=S)NC12CC3CC(CC(C3)C1)C2` belongs 2.67; to `CCOc1ccc(OC(C)=O)cc1`, 1.95; to `CC(=O)C(=Cc1ccc(Cl)cc1)C(C)=O`, 2.32.
On the same count and under the same terms, for `O=S(=O)(Cc1ccccc1)c1ccccc1` the value was 2.05.
`c1ccc(CNc2ccccc2)cc1` returned a logP of 3.13.
The same measure, in the same setting: for `O=c1c2ccccc2sc2ccccc12` the value was 3.99; for `CN(C(=O)COc1ccccc1)c1ccccc1`, 2.25; for `O=c1cn[nH]c2ccccc12`, 0.82.
On the same count and under the same terms, to `CC1(C)OCCO1` belongs 0.46.
Same read-out and setting: to `CCOP(=S)(OCC)SCS(=O)(=O)C(C)(C)C` belongs 2.48; to `CCOC(=O)C(=Cc1ccc(Cl)cc1)C(=O)OCC`, 3.96.
Turning to `COc1cccc(NC(C)=O)c1`, the logP was determined as 1.28.
The same measure, in the same setting: for `N#CCc1ccco1` the value was 0.85.
Same read-out and setting: to `NS(=O)(=O)c1ccc(C(=O)c2ccncc2)cc1` belongs 0.56; to `COc1cccc(C=C(C(N)=O)C(N)=O)c1`, 0.01; to `COc1cc(OC)cc(OC(=O)CNC(=O)c2ccccc2)c1`, 2.69.
Still for that read-out and setting: to `CC(C)c1ccccc1O` belongs 2.88; to `CNP(=O)(OC)Oc1ccc(Cl)cc1` (stereo not drawn), 1.85.
`CCCc1ccncc1` registered a logP of 2.1.
Same read-out and setting: to `N#CN=[N+]([O-])c1ccccc1` belongs 1.87; to `O=c1[nH]cc(CO)c(=O)[nH]1`, -1.94.
Still for that read-out and setting: for `O=S1(=O)NC(c2ccco2)=Nc2ccccc21` the value was 1.06; for `CSC(=O)Nc1ccccc1`, 2.4; for `Nc1ccc(I)cc1`, 2.34.
Same read-out and setting: to `CCOP(=S)(OCC)Oc1ccc(SC)c(Cl)c1` belongs 5.06; to `CN(C)C(=O)c1ccoc1`, 0.24; to `COc1ccccc1C(=O)N(C)C`, 0.71.
With `CCOC(=O)c1ccc(NC(=O)C(F)(F)F)cc1`, the logP is 2.25.
Still for that read-out and setting: to `CC(=NO)c1ccsc1` belongs 1.81; to `COc1cc(C=NO)ccc1O`, 2.16.
`O=C1Cc2ccccc2CCc2ccccc21` showed a logP of 2.58.
Same read-out and setting: for `O=C(O)COc1ccc(Cl)c([N+](=O)[O-])c1` the value was 1.85; for `CCOS(=O)(=O)OCC`, 1.14.
The same measure, in the same setting: to `CCCCC[N+](=O)[O-]` belongs 2.01; to `Oc1ccccc1C(F)(F)F`, 2.73.
Same read-out and setting: to `CCCCCCC1OC(=O)c2ccccc21` (stereo not drawn) belongs 3.55.
Molecule `N#CSCc1ccccc1` registered a logP of 1.99.
As for `CSc1ccccc1NC(C)=O`, the lipophilicity (logP) was 1.53.
Same read-out and setting: for `O=S1(=O)NC(C2CC3C=CC2C3)=Nc2ccccc21` (stereo not drawn) the value was 2.06; for `CCCOCCC(=O)N(C)c1ccc(S(=O)(=O)N(C)C)cc1`, 1.26; for `CC1CCC(=O)CC1`, 1.38.
In the case of `CCc1ccccc1NC(C)=O`, the logP is 1.33.
The molecule `c1ccc2c(c1)Cc1ccccc1C2` had a logP of 4.25.
`CC1=Nc2cccc(Cl)c2S(=O)(=O)N1`: the logP came to 0.62.
The same measure, in the same setting: for `CCS(=O)(=O)c1ccc(S(N)(=O)=O)c2ccccc12` the value was 1.24.
In turn, `Cc1nnc(SCc2ccccc2)s1` gave a logP of 2.35.
`Nc1nc2ccccc2c(=O)[nH]1`: the logP amounted to 0.6.
Molecule `CC(=O)Nc1cc(OCC(=O)O)ccc1Cl` showed a logP of 0.75. The logP values of the last two molecules are within 0.2 log units of each other.
Consider `CC(C)(C)C(=O)Nc1ccc(Cl)c(Cl)c1`, for which the logP came to 3.88.
Same read-out and setting: to `CCOC(=O)C(=O)OCC` belongs 0.56; to `Cc1cccc(OC(=O)CNC(=O)c2ccccc2)c1`, 2.72; to `c1cnc2ccc3ncccc3c2c1`, 2.05.
Still for that read-out and setting: for `O=NN(CCCl)C(=O)NC1CS(=O)(=O)CS(=O)(=O)C1` the value was -0.94; for `C#CCO`, -0.38.
For the molecule `Nc1ncco1`, the logP was -0.18.
Still for that read-out and setting: for `N#C/N=N/c1ccccc1` the value was 2.3; for `CC(=O)C(=Cc1ccc(C)cc1)C(C)=O`, 2.14; for `CCCOC=O`, 0.83.

The same data set, now with this note: pH 0.5.
For orientation: logD means the decadic logarithm of the distribution of all forms, ionised or not, between an organic phase and buffer at a given pH. Higher therefore signals higher lipophilicity. With `CC(O)COc1cccc2oc(C(=O)O)cc(=O)c12` (stereo not drawn), the logD worked out at 1.32.

The same data set, now with this note: pH 1.0.
On to `O=C(O)c1ccccc1S`, for which the logD is 2.39.
`O=C(O)c1ccccc1Oc1ccccc1` showed a logD of 3.11.
On the same count and under the same terms, to `O=C(O)c1ccccc1-c1ccccc1C(=O)O` belongs 2.07.

Still in this data set, the particulars now being: pH 2.0.
The molecule `O=C(O)c1cc2ccccc2[nH]1` came in with a logD of 2.31.
On the same count and under the same terms, for `Cn1cc(C(=O)O)c2ccccc21` the value was 1.76.

The data set is the same for the next values; noted with them: pH 3.0.
In the case of `CC(=O)OCC1=C(C(=O)O)N2C(=O)C(NC(=O)Cc3ccccc3)C2SC1` (stereo not drawn), the logD was determined as 0.2.
Molecule `Cn1nnnc1SCC1=C(C(=O)O)N2C(=O)C(NC(=O)Cc3cccs3)C2SC1` (stereo not drawn) showed a logD of 0.

The same data set, now with this note: pH 5.0.
In the case of `O=[N+]([O-])c1ccc2oncc2c1`, the pH-dependent lipophilicity (logD) was determined as 1.46.

Staying with this data set, now noted: pH 6.6.
The molecule `CON=C(C(=O)NC1C(=O)N2C(C(=O)OCOC(=O)C(C)(C)C)=C(CSc3nnnn3C)CSC12)c1csc(N)n1` (stereo not drawn) came in with a pH-dependent lipophilicity (logD) of 1.74.

The same data set, now with this note: pH 7.0.
In turn, `CC(=O)c1ccc(N(C)C)cc1` gave a logD of 2.1.
Consider `CC(=O)c1ccc(C(C)=O)cc1`, for which the logD is 1.34.
Same read-out and setting: to `NC(=O)c1cccnc1N` belongs 0.88.

Staying with this data set, now noted: pH 7.4.
`NC(=S)N/N=C/c1ccc(O)cn1`: the logD stood at 0.69.
Still for that read-out and setting: to `C=CCN(CC=C)c1c(C)n(-c2ccccc2)c(=O)n(C)c1=O` belongs 2.59.

The data set is the same for the next values; noted with them: pH 8.9.
Turning to `NNc1ccccc1`, the logD came to 1.25.

The data set is the same for the next values; noted with them: pH 11.0.
In turn, `CCNCCc1cccnc1` showed a logD of 0.54.
Still for that read-out and setting: to `CN1CCCC[C@H]1c1cccnc1` belongs 0.96.

Staying with this data set, now noted: pH 13.0.
Turning to `CN(C)CC(O)c1ccccc1` (stereo not drawn), the logD stood at 1.54.
Take `CC1(C)N=C(N)N=C(N)N1c1cccc(COc2cccc(NC(N)=O)c2)c1`: the logD was found to be 0.9.
The same measure, in the same setting: for `c1ccc(N2CCCCC2)cc1` the value was 2.98.
`CN[C@@H](C)Cc1ccccc1` came in with a logD of 2.07.

(Values after the SangsterLogP compilation.)
